Legend:
apoglucose oxidase = target: T1, apoglucose oxidase (Aspergillus niger, UniProt P13006); experiment: Binding of FAD / FADP by apoglucose oxidase (removal of FAD traces from FADP)
T1 construct: made in house
Description: Apoglucose oxidase (2.5 μM) was mixed with FADP (200 μM) at room temperature. After 30 min the mixture was ultrafiltered to yield a sample of FADP containing less than 0.002% FAD.

D-amino acid oxidase = D-amino acid oxidase (Sus scrofa, UniProt P00371); conditions: same concentration as D-alanine (35 mM), pH 8.0
From the text: Use of apo-D-amino acid oxidase, whose holoenzyme has a pH optimum of 8.0-9.0, allows the above assay to be conducted in a single pot:
The above ingredients may be mixed beforehand and added directly too the alkaline phosphatase.

alkaline phosphatase = experiment: Hydrolysis of FADP by alkaline phosphatase, product checked by anion exchange elution and apoglucose oxidase reconstitution; type: biochemical; conditions: 10 mM Tris buffer pH 8.0, 1 mM MgCl2, 0.1 mM ZnCl2
From the text: Crude 2'(3')-FADP was isolated by FPLC on a Mono Q HR 10/10 anion exchange column (Pharmacia) with a H2 O/1M ammonium formate (pH 6.5) gradient. The fractions eluting with 0.65-0.8M ammonium formate were pooled and freeze-dried. […] Traces of FAD could be removed by treatment with a suitable apoenzyme followed by ultrafiltration to remove the macromolecules.

apoenzyme = experiment: Prosthetic-group activity of FADP and its interference with holoenzyme formation from apoenzyme and FAD; type: biochemical; conditions: shelf-stable apoenzymes
From the text: In a preferred embodiment, the prosthetogen is an FAD-phosphate (FADP) and the hydrolase is a phosphatase. This procedure has the great advantage that the prosthetic group, FAD, is formed directly by action of a phosphatase enzyme on the prosthetogen, FADP, without the necessity to add any ancillary converting enzymes.
Suitable apoenzymes include apo-D-aminoacid oxidase and apoglucose oxidase as mentioned above, as well as apo-L-aminoacid oxidase, apoxanthine oxidase and other apoenzymes which will be apparent to those skilled in the art. Apo-D-aminoacid oxidase is a preferred apoenzyme for many applications since it is very shelf-stable, and has kinetic characteristics that permits the technology to be used in a `single pot` format, with all components added as a single promix to analyte-linked alkaline phosphatase. Suitable substrates for it are D-alanine, D-methionine and D-proline. For maximising the sensitivity of the invention without incorporating tail-end cycling components (see below), the use of apoglucose oxidase is advantageous, although its use requires a two stage format in which the first stage, involving hydrolysis of FADP, is operated at pH 8.0 and the second detection stage at a lower pH.

T1 sequence (P13006 17-605): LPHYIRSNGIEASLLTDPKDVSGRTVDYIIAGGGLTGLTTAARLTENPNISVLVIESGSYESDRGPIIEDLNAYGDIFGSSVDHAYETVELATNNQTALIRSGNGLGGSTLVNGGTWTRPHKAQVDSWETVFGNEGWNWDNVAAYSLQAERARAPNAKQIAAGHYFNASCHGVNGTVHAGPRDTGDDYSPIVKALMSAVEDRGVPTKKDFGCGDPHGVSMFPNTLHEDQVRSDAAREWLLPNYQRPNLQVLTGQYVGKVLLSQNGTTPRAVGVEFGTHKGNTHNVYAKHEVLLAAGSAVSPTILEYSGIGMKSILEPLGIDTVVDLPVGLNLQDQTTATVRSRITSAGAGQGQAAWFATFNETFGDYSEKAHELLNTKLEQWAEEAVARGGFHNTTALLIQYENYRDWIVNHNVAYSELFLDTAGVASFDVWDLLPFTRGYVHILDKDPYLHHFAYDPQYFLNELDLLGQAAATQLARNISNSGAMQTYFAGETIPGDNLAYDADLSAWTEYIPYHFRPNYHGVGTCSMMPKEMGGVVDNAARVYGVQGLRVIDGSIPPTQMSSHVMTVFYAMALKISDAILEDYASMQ
D-amino acid oxidase, sequence (P00371 whole entry): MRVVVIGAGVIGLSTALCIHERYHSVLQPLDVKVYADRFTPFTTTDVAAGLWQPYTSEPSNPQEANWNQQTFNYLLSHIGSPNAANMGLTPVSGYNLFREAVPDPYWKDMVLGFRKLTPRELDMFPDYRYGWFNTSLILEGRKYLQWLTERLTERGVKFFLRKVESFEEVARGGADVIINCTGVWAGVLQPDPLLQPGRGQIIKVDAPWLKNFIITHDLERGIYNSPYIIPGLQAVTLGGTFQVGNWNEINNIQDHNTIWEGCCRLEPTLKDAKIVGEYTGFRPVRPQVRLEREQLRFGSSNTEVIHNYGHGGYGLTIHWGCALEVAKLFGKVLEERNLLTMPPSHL

Cc1cc2nc3c(=O)[nH]c(=O)nc-3n(C[C@H](O)[C@H](O)[C@H](O)COP(=O)(O)OP(=O)(O)OC[C@H]3O[C@@H](n4cnc5c(N)ncnc54)[C@H](O)[C@@H]3O)c2cc1C [FAD, flavin adenine dinucleotide, reference compound]
binding by apoglucose oxidase (apoglucose oxidase): binds FAD tightly

CSCC[C@@H](N)C(=O)O [D-methionine]
rate of oxidation relative to D-alanine (D-amino acid oxidase): 2.5

O=C(O)[C@H]1CCCN1 [D-proline]
rate of oxidation relative to D-alanine (D-amino acid oxidase): 3.0

FAD-2' (3')-Phosphate [FADP]
hydrolysis by alkaline phosphatase (alkaline phosphatase): acted upon by alkaline phosphatase to give a product that eluted in the same place as FAD and was able to reconstitute apoglucose oxidase
activity per se as a prosthetic group (apoenzyme): no significant activity per se as a prosthetic group
interference with formation of the holoenzyme from apoenzyme and FAD (apoenzyme): does not significantly interfere with the formation of the holoenzyme
binding by apoglucose oxidase (apoglucose oxidase): does not bind FADP

— patent US5445942A, “Amplification assay for hydrolase enzymes” (London Biotechnology Limited, priority 1988, dated 1995)
